Experimental data published in patent US20240108658A1, “SYNERGISTIC STEM CELL-BASED MEDICATION FOR TREATING MYOCARDIAL INFARCTION AND RELATED APPLICATION” (SOOCHOW UNIVERSITY, priority 2021, published 2024).

Experiments:
[1] = test system: mouse myocardial infarction modelling (LAD ligation); experiment: Cardiac ultrasound testing of cardiac function after myocardial infarction (EF, FS, LVEDD, LVESD); type: in vivo, C57BL/6J mice
Excerpt: The sham-operated group was only passed through the lower part of the LAD without ligation, and the rest were the same as the model group. After ligation, it turned white from the ligation site to the cardiac apex when observed with the naked eyes. The left ventricular tissue was taken for cardiac tissue staining after 1 week and obvious fibrosis was observed, indicating the successful establishment of the myocardial infarction modelling. […] After anesthesia of mice (same method as before) and depilation, the mice lied on the left side, and the probe of the cardiac ultrasound diagnostic instrument was placed on the anterior wall of the heart, a two-dimensional short-axis view of the left ventricle at the papillary muscle level was taken and the M-mode ultrasonic scanning was recorded. And left ventricular ejection fraction (EF), shortening fraction (FS), left ventricular end diastolic diameter (LVEDD), and left ventricular end systolic diameter (LVESD) were measured for three consecutive cardiac cycles.

[2] = test system: mouse myocardial infarction modelling (LAD ligation); experiment: Ventricular remodeling: HW/BW and Masson staining, myocardial infarction area/heart area; type: in vivo, C57BL/6J mice; details: MSCs + 2-DG 500 mg/kg/day intraperitoneal; 28 days after surgery; FIG. 2
Excerpt: The sham-operated group was only passed through the lower part of the LAD without ligation, and the rest were the same as the model group. After ligation, it turned white from the ligation site to the cardiac apex when observed with the naked eyes. The left ventricular tissue was taken for cardiac tissue staining after 1 week and obvious fibrosis was observed, indicating the successful establishment of the myocardial infarction modelling. […] Masson staining: The mice were euthanized 28 days after surgery, and left ventricular tissue was taken for cardiac tissue staining to observe the therapeutic effect. It was carried out according to the routine Masson staining steps, and the observation and photo-taking were carried out under a regular optical microscope. The image analysis software Image J was used to analyze the area of each part and calculate the myocardial infarction area/heart area.

transplanted MSCs = experiment: Survival of transplanted CM-Dil-stained mesenchymal stem cells (immunofluorescence, flow cytometry); details: MSCs + 2-DG 500 mg/kg/day intraperitoneal; 3rd day after surgery; FIG. 3

O=CC[C@@H](O)[C@H](O)[C@H](O)CO [2-DG, 2-Deoxy-D-glucose]
cardiac function of mice treated with MSCs after myocardial infarction ([1]; MSCs 5×105 intramyocardial + 2-DG 500 mg/kg/day intraperitoneal, FIG. 1): improvement of cardiac function | function of MSCs in improving myocardial infarction (overall conclusion) ([1]; conclusion from Examples 1-3, MSCs + 2-DG): can effectively improve the function of MSCs in improving myocardial infarction | ventricular remodeling of mice treated with MSCs after myocardial infarction [2]: improvement of ventricular remodeling | survival of transplanted MSCs (transplanted MSCs): significantly increases the survival of transplanted MSCs
